Key:
rat BMSC [1] = assay: DNA synthesis by [methyl-3H] thymidine incorporation in differentiating rat BMSC; assay type: cell-based
Method: [methyl-3H] thymidine (25 μCiμmol, 2 μCi/ml) incorporation into trichloroacetic acid precipitated-DNA (Amersham Inc) was measured.
BMSC were, 24 h after splitting; cultivated in the presence of LSP cytokines, added either as a cocktail or separately on 10 ng/ml FN at 2.465 10^3 cells/cm^2. […] Media were changed every three days. Samples were taken 2, 4, 6, 12 and 18 h after splitting or media change. Cells were stimulated for 2 h before sampling with 2 μCi [methyl-^3H] thymidine (Amersham Pharmacia Biotech)/ml medium. [methyl-^3H] thymidine incorporation was measured using a scintillation counter (Wallac 1410) with a counting efficiency of 62.4%.

rat BMSC [2] = assay: Albumin ELISA, ALB secretion by rat BMSC-derived hepatocyte-like cells; assay type: cell-based
Method: Then, cells were cultivated in the presence of liver-specific (LSP) cytokines either as a cocktail [basal medium+10 ng/ml FGF-4 (fibroblast growth factor type 4), 20 ng/ml HGF (hepatic growth factor) (all from R&D), 1×ITS (insulin, transferrin, selenious acid) and 0.05 μM Dex (dexamethasone) (all from Sigma)] or separately (until day 3: basal medium+10 ng/ml FGF-4; from days 3 to 6: basal medium+20 ng/ml HGF; from day 6 on: basal medium+20 ng/ml HGF+1×ITS and 0.05 μM Dex). […] The culture media were changed every three days.
ALB concentrations secreted into the media were analysed by competitive enzyme-linked immunosorbent assay (ELISA) as described (Koebe et al. Int J Artif Organs 17: 95-106, 1994). The ALB levels were normalized with respect to the media used.

C/EBPalpha = assay: Western blotting of C/EBPalpha in primary hepatocytes; assay type: cell-based, rat; details: 1 μM TSA added at 0h or 4 h; day 4 and 7
Excerpt: Hepatocytes were isolated from male Sprague-Dawley rats by a two-step collagenase perfusion as described (De Smet et al. In ‘Methods in Molecular Biology, Vol. 107: Cytochrome P450 Protocols’, Philips IR and Shephard E A, eds., p.p 295-301, Humana Press, Totowa, 1998). Hepatocytes were cultivated in monolayer cultures with Willam's E Medium (WE) for 7 days. […] The maintenance of differentiation characteristics was studied after 2, 4, and 7 days (D2, D4, D7) of culture.
Western blotting was performed using standard techniques known in the art. Proteins (25 μg) were resolved on a 10% SDS-PAGE and blotted onto nitrocellulose membrane. The membranes were incubated with appropriate concentrations of primary and secondary antibodies. Proteins were detected using appropriate dilutions of primary and secondary antibodies. Detection was done using the ECL detection system (Amersham Pharmacia Biotech, UK) according to manufacturer's recommendations.

Pak1 = assay: Western blotting of Pak1 in primary rat hepatocytes; assay type: cell-based; details: 50 μM, sustained treatment, EGF-stimulated
Excerpt: Male outbred Sprague-Dawley rats (200-300 g, Iffa Credo, Brussels, Belgium) were kept under controlled environmental conditions (12-hr light-dark cycle) and fed a standard diet (Animafabo A04, water ad libitum). Hepatocytes were isolated by a two-step collagenase perfusion as described (De Smet et al. In ‘Methods in Molecular Biology, Vol. 107: Cytochrome P450 Protocols’, Philips I R and Shephard E A, eds., pp 295-301, Humana Press, Totowa, 1998). Cell liability was >90% as determined by trypan blue exclusion. Cells (0.4×10^5 cells/cm^2) were plated in MEM/M199 (3:1), containing BSA (1 mg/ml), bovine insulin (10 μg/ml), L-glutamine (2 mM), FBS (10% v/v) and antibiotics (7.3 IU/ml benzyl penicillin, 50 μg/ml streptomycin sulphate, 50 μg/ml kanamycin monosulphstep and 10 μg/ml sodium ampicillin). Four hours after plating, serum-containing medium was removed and fresh serum-free medium was added to the cultures. Culture medium was refreshed daily. […]
Total cell extracts were prepared as described previously (Papeleu et al. J Hepatol 39: 374-382, 2003) and proteins (25 or 50 μg per lane) were separated electrophoretically by SDS-PAGE and electroblotted onto nitrocellulose membranes (Amersham Pharmacia Biotech, Buckinghamshire, UK). […] Proteins were detected using the ECL detection system (Amersham Pharmacia Biotech, Buckinghamshire, UK) according to the manufacturer's recommendations.

CYP 2B = assay: Western blot of CYP 2B in primary rat hepatocytes; assay type: cell-based; details: 50 μM
Excerpt: Male outbred Sprague-Dawley rats (200-300 g, Iffa Credo, Brussels, Belgium) were kept under controlled environmental conditions (12-hr light-dark cycle) and fed a standard diet (Animalabo A04, water ad libitum). Hepatocytes were isolated by a two-step collagenase perfusion as described (De Smet et al. In ‘Methods in Molecular Biology, Vol. 107: Cytochrome P450 Protocols’, Philips I R and Shephard E A, eds., pp 295-301, Humana Press, Totowa, 1998). Cell viability was >90% as determined by trypan blue exclusion. Cells (0.4×10^5 cells/cm^2) were plated in MEM/M199 (3:1), containing BSA (1 mg/ml), bovine insulin (10 μg/ml), L-glutamine (2 mM), FBS (10% v/v) and antibiotics (7.3 IU/ml benzyl penicillin, 50 μg/ml streptomycin sulphate, 50 μg/ml kanamycin monosulphate and 10 μg/ml sodium ampicillin). Four hours after plating, serum-containing medium was removed and fresh serum-free medium was added to the cultures. Culture medium was refreshed daily. EGF (50 ng/ml) was added 4 hours after plating. A 100 mM stock solution of 4-Me2N-BAVAH was prepared in ethanol.

[3] = 1 μM TSA first from 168 h cultivation on, sequential

Row | expression of CYP 2B (CYP 2B) | SMILES | cytotoxicity by microscopic analysis (rat BMSC [1]) | cell death by microscopic analysis (rat BMSC [1]; 1 μM TSA added from 24 and 96 h on, sequential) | [methyl-3H] thymidine incorporation (rat BMSC [1]; [3]) | cell death by microscopic analysis (rat BMSC [1]; [3]) | DNA synthesis compared with control (sequential without TSA) (rat BMSC [1]; 1 μM TSA from 24, 96 and 168 h on, sequential LSP cytokines) | DNA synthesis compared with control (cocktail-TSA) (rat BMSC [1]; 1 μM TSA from 24 and 96 h of cultivation on, cocktail of LSP cytokines) | cell death by microscopic analysis (rat BMSC [1]; 1 μM TSA from 168 h, cocktail, day 7) | [methyl-3H] thymidine incorporation (DNA synthesis) (rat BMSC [1]; 5 and 25 μM TSA) | [methyl-3H] thymidine incorporation (rat BMSC [1]; first addition of 1 μM TSA from 168 h of cultivation on, cocktail) | cell death (rat BMSC [2]; cocktail of LSP cytokines + TSA, from day 16 on) | increase of the ALB secretion from day 15 to 17 (rat BMSC [2]; sequential cytokines + 1 μM TSA) [fold] | ALB secretion (rat BMSC [2]; sequential cytokines + 1 μM TSA, from day 15 on) | expression of C/EBPalpha (C/EBPalpha) | cellular levels of Pak1 (Pak1)
1 |  | CC(C=CC(=O)NO)=CC(C)C(=O)c1ccc(N(C)C)cc1 (stereo not drawn) [TSA] | cytotoxicity | cell death | no [methyl-^3H] thymidine incorporation | No death cells were observed | decrease of the DNA synthesis | increase of the DNA synthesis | no cell death had occurred | no incorporation | no [methyl-^3H] thymidine | cell death had occurred | 2.5 | significantly upregulated | increase expression | 
2 | Increased Expression | CN(C)c1ccc(C(=O)NCCCCC(=O)NO)cc1 [4-Me2N-BAVAH, 5-(4-dimethylaminobenzoyl)-aminovaleric acid hydroxamide] |  |  |  |  |  |  |  |  |  |  |  |  |  | decrease in the cellular levels of Pak1
